Here are results for 2 molecules from patent US20240325394A1, “SALT AND CRYSTAL FORM OF NITROGEN-CONTAINING HETEROCYCLIC DERIVATIVE, PREPARATION METHOD THEREFOR AND APPLICATION THEREOF” (SHANGHAI HANSOH BIOMEDICAL CO., LTD., priority 2020, published 2024).

Series [1] is described as follows: Plasma protein binding rate test, human plasma. Conditions: 37° C. The format is in vitro ADME. The protocol:
(§1) The embodiment compound was prepared into a 1 mM solution A with DMSO.
(§2) Solution A was added to the plasma solution and prepared into a 5 μM solution B.
(§3) • 1) 200 μL of solution B was added into the membrane. • 2) 350 μL of PBS was added to the outside of the membrane. • 3) Incubating in a 37° C. water bath for 6 hours. • 4) The samples were processed for dilution and detected by mass spectrometry.
(§4) • instrument: Shimadzu LC-20 AD; • chromatographic column: phenomenex Gemiu® C18 (50*4.6 mm, 5 UM particle size); • mobile phase: A: Acetonitrile, B: 0.1% formic acid solution 0-0.5 min: 5% A→90% A, 2.0-2.1 min: 90% A→5% A; flow rate: 0.8 mL/min; running time: 5.0 min; injection volume: 5 μL.
(§5) • instrument: API4000 Liquid Chromatography-Mass Spectrometry, AB, USA; • the ion source was electrospray ionization source (ESI); • the temperature of dry gas (N2) was 500° C.; • electrospray voltage was 5500V; • the detection method was positive ion detection; • the scanning mode was selective response monitoring (MRM); the scanning time was 0.1 s.

Series [2] deals with NCI-H358 cells (KRAS G12C mutant). In words: Inhibition of NCI-H358 cell proliferation (CellTiter-Glo, 72 h). Type of series: cell-based, human. The protocol:
(§6) When NCI-H358 or Mia PaCa-2 cells were cultured to the appropriate fusion level, the NCI-H358 or Mia PaCa-2 cells were collected, and the cells were adjusted to the appropriate cell concentration using a complete medium, and the cell suspension was spread in a 96-well plate, 90 μL per well, and placed in a 37° C., 5% CO2 incubator overnight; and compound solutions of different concentrations were prepared using DMSO and culture medium; and a solvent control was set, the compound solution was added to a 96-well plate, 10 μL per well, at 37° C. in a 5% CO2 incubator for 72 hours; CellTiter-Glo solution was added thereto and the mixture was mixed well by shaking, incubated for 10 min in the dark, and read by BioTek Synergy H1 microplate reader.
(§7) The luminescence signal values were used to calculate the inhibition rate, the concentration and the inhibition rate were fitted to a nonlinear regression curve using Graphpad Prism software, then the IC50 value was obtained.

Series [3] deals with Mia PaCa-2 cells (KRAS G12C mutant). Kind of series: Inhibition of Mia PaCa-2 cell proliferation (CellTiter-Glo, 72 h). Type of series: cell-based, human. As to the method:
as §6, §7
On the technique in general: In ATP-based viability assays light output follows the ATP content of the culture.

Series [4] relates to phosphorylated ERK in Mia PaCa-2 cells. In words: Inhibition of phosphorylated ERK in Mia PaCa-2 cells (LANCE Ultra). The format is cell-based, human. Conditions: 2 hours treatment; read-out: Mia PaCa-2 pERK IC50. As to the method:
When Mia PaCa-2 cells were cultured to the appropriate fusion level, Mia PaCa-2 cells were collected, and the cell density was adjusted to 1×10^6/mL using complete culture medium, the cell suspension was spread on a 96-well plate, 50 μL per well, and placed adherent to the wall in a 37° C., 5% CO2 incubator overnight, compound solutions with different concentrations were prepared using DMSO and complete culture medium, a solvent control was set, the compound solution was added to a 96-well plate, 25 μL per well, and placed in a 37° C., 5% CO2 incubator for 2 hours of continuous culture, the supernatant was discarded from the cell culture plate, 50 μL of lysis solution was added to each well, and lysing was performed for 30 minutes by shaking at room temperature, then the mixture was centrifuged at 1000 rpm for 1 minute, 15 μL of supernatant was transferred to 384 well plate, 5 μL of detection mixture (Eu-labeled anti-ERK1/2 (T202-Y204) antibody with final concentration of 0.5 nM and ULight labeled anti-ERK1/2 antibody with final concentration of 5 nM) was added to each well, centrifuged at 1000 rpm for 1 minute and mixed uniformly, the reaction was carried out overnight at room temperature, the plate was read with BioTek Synergy H1, and the signal values was detected at 620 nm and 665 nm emission wavelengths by time-resolved fluorescence program. […]
(In TR-FRET formats the signal depends on donor and acceptor labels being close together.)

Series [5] deals with plasma protein. Kind of series: Plasma protein binding rate test, human plasma. Type of series: in vitro ADME. Conditions: 5 μM, 37° C., 6 hours. As to the method:
as §1, §2, §3, §4, §5

The test system of series [6] is plasma protein. Kind of series: Plasma protein binding rate test, rat plasma. The format is in vitro ADME. Conditions: 5 μM, 37° C., 6 hours. As to the method: as §1, §2, §3, §4, §5
Series [7] has as its system plasma protein. In words: Plasma protein binding rate test, dog plasma. Type of series: in vitro ADME. The conditions noted are these: 5 μM, 37° C., 6 hours. As to the method:
as §1, §2, §3, §4, §5

As usually defined, the fraction unbound is free concentration divided by total concentration. The low end stands for extensive binding, the high end for weak binding. In turn, `C=CC(=O)N1C[C@H](C)N(c2nc(=O)n(-c3c(SC)ccnc3C(C)C)c3nc(-c4c(N)ccc(Cl)c4F)c(Cl)cc23)C[C@H]1C` (atropisomer, axis not shown) [Embodiment 13-1, P-4-((2S,5R)-4-Acryloyl-2,5-dimethylpiperazin-1-yl)-7-(6-amino-3-chloro-2-fluorophenyl)-6-chloro-1-(2-isopropyl-4-(methylthio)pyridin-3-yl)pyrido[2,3-d]pyrimidin-2(1H)-one] gave a fraction unbound at 6 h, 5 μM in series [1] of 0.003.
One may read the IC50 as the concentration at which inhibition is half-maximal. As to “P-4-((2S,5R)-4-acryloyl-2,5-dimethylpiperazin-1-yl)-6-fluoro-7-(2-fluoro-6-hydroxyphenyl)-1-(2-isopropyl-4-(methylthio)pyridin-3-yl)pyrido[2,3-d]pyrimidin-2(1H)-one [Embodiment 2-1]”, the IC50 in series [2] came out at 35 nM; in series [3], 29 nM; in series [4], 38 nM. Further, the “Plasma protein binding rate, Human” value with plasma protein [5] worked out at 98.0. For the same molecule, the “Plasma protein binding rate, Rat” value with plasma protein [6] amounted to 90.5. In addition, the “Plasma protein binding rate, Dog” value in the series on plasma protein [7] turned out to be 82.6.
